By Ki is commonly meant a dissociation constant, usually derived from enzyme kinetics or from competition with a known ligand. High values mean a looser hold on the target, low ones a stronger hold on the target.

The target in one assay is T1, 5-HT1A receptors (Rattus norvegicus, UniProt P19327).
T1 construct: Hippocampal tissue from the brains of male Sprague-Dawley rats; from tissue; host or cells: rat hippocampus membranes
T1 sequence (P19327 1-422): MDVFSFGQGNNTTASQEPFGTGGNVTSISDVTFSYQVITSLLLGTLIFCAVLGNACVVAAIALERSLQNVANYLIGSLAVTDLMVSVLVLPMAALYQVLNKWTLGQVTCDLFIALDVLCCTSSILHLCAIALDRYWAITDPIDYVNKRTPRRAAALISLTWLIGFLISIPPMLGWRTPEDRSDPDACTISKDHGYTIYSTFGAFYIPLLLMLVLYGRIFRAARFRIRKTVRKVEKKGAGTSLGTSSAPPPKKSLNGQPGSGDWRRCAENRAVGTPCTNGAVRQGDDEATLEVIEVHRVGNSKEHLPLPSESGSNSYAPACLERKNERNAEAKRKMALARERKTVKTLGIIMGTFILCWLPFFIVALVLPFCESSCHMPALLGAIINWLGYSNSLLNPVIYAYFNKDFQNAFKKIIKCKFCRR
Nature of the assay: inhibition of [3H]8-OH-DPAT binding to 5-HT1A receptors in rat hippocampal tissue. Conditions: rat hippocampus; for inhibition at 1 µM: at 10^-6 M, [3H]8-OH-DPAT, read-out: % displacement of radio ligand, 5-HT1A. How it is done: Hippocampal tissue from the brains of male Sprague-Dawley rats (Charles River; weight range 150-250 g) was homogenised in ice-cold 50 mM Tris-HCl buffer (pH 7.7 when measured at 25° C., 1:40 w/v) and centrifuged at 30,000 g at 4° C. for 10 minutes. The pellet was rehomogenised in the same buffer, incubated at 37° C. for 10 minutes and centrifuged at 30,000 g at 4° C. for 10 minutes. The final pellet was resuspended in 50 mM Tris-HCl buffer (pH 7.7) containing 4 mM CaCl2, 0.1% L-ascorbic acid and 10 μM pargyline hydrochloride (equivalent to 6.25 mg wet weight of tissue/ml) and used immediately in the binding assay. Aliquots (400 μl; equivalent to 2.5 mg wet weight of tissue/tube) of this suspension were added to tubes containing the ligand (50 μl; 2 nM) and distilled water (50 μl total binding) or 5-HT (50 μl; 10 μM; non-specific binding) or test compound (50 μl; at a single concentration of 10^-6 M or at 10 concentrations ranging from 10^-11 -10^-3 M). The ligand was [^3 H]8-hydroxy-2-(dipropylamino)tetralin ([^3 H]8-OH-DPAT) and the mixture was incubated at 25° C. for 30 minutes before the incubation was terminated by rapid filtration.
(§1) The filters were washed with ice-cold Tris-HCl buffer and dried. The filters were punched out into vials, scintillation fluid added and radioactivity determined by liquid scintillation counting. The percentage displacement of specific binding of the tritiated ligand was calculated for the single concentration (10^-6 M) of test compound. Displacement curves were then produced for those compounds which displaced ≥50% of specific binding of the tritiated ligand at 10^-6 M using a range of concentrations of the compound. The concentration which gave 50% inhibition of specific binding (IC50) was obtained from the curve. The inhibition coefficient Ki was then calculated using the formula [formula] in which [ligand] is the concentration of the tritiated ligand used and KD is the equilibrium dissociation constant for the ligand.

The subject of the next assay is α1-adrenoceptors. Nature of the assay: inhibition of [7-methoxy-3H]prazosin binding to α1-adrenoceptors in rat whole cortical tissue. The following applies: rat whole cortex, 30 min; for % displacement of radio ligand, α1: at 10^-6 M, [7-methoxy-3H]prazosin, 1 µM. How it is done: Whole cortical tissue from the brains of male Charles River CD rats weighing between 150-250 g were homogenised in ice-cold 50 mM Tris-HCl, pH 7.6 (at 25° C.; 1:40 w/v) and centrifuged at 1000 g at 4° C. for 10 minutes. The supernatant was centrifuged at 30,000 g at 4° C. for 10 minutes. The pellet was rehomogenised in 50 mM Tris-HCl, pH 7.6 (1:40 w/v) and centrifuged at 30,000 g at 4° C. for 10 minutes. The final pellet was resuspended in 50 mM Tris-HCl, pH 7.6 (equivalent to 12.5 mg wet weight of tissue/ml) and used immediately in the binding assay. Aliquots (400 μl; equivalent to 5 mg wet weight of tissue/tube) of this suspension were added to tubes containing the ligand (50 μl; 0.1 nM) and distilled water (50 μl; total binding) or phentolamine (50 μl; 5 μM; non-specific binding) or test compound (50 μl; at a single concentration of 10^-6 M or at 10 concentrations ranging from 10^-11 -10^-3 M). The ligand was [7-methoxy-^3 H]prazosin and the mixture was incubated at 30° C. for 30 minutes before the incubation was terminated by rapid filtration.
as §1

The next assay addresses T2, D2 dopamine receptors (Rattus norvegicus, UniProt P61169).
T2 construct: Striatal tissue from the brains of male Charles River CD rats; from tissue; host or cells: rat striatum membranes
Nature of the assay: inhibition of tritiated (S)-sulpiride binding to D2 dopamine receptors in rat striatal tissue. The following applies: rat striatum; for inhibition at 1 µM: at 10^-6 M, tritiated (S)-sulpiride, read-out: % displacement of radio ligand, D2. How it is done:
Striatal tissue from the brains of male Charles River CD rats weighing between 140-250 g were homogenised in ice-cold 50 mM Tris-HCl buffer (pH 7.7 when measured at 25° C.) and centrifuged at 40,000 g for 10 minutes. The pellet was resuspended in Tris salts buffer (50 mM Tris-HCl buffer containing 120 mM NaCl, 5 mM KCl, 2 mM CaCl2 and 1 mM MgCl2 with the addition of 6 mM ascorbic acid; pH 7.7 when measured at 25° C.), and again centrifuged at 40,000 g for 10 minutes. The final pellet was stored at -80° C. Before each test the pellet was resuspended in Tris salts buffer (equivalent to 2 mg wet weight of tissue/ml). Aliquots (720 μl; equivalent to 1.44 mg wet weight of tissue/tube) of this suspension were then added to tubes containing the ligand (40 μl; 1 nM) and Tris salts buffer (40 μl; total binding) or spiroperidol (40 μl; 10 nM; non-specific binding) or test compound (40 μl; at a single concentration of 10^-6 M or at 6 concentrations ranging from 10^-11 -10^-4 M). The ligand was tritiated (S)-sulpiride and the mixture was incubated at 4° C. for 40 minutes before the incubation was terminated by rapid filtration.
The filters were washed with ice-cold Tris-HCl buffer and dried. The filters were punched out in to vials, scintillation fluid added and were left for about 20 hours before being counted by scintillation spectrophotometry. The percentage displacement of specific binding of the tritiated ligand was calculated for the single concentration (10^-6 M) of test compound. Displacement curves were then produced over a range of concentrations for those compounds which displaced ≥50% of specific binding of the tritiated ligand at 10^-6 M. The concentration which gave a 50% inhibition of specific binding (IC50) was obtained from the curve. The inhibition coefficient Ki was then calculated using the formula [formula] in [ligand] is the concentration of the tritiated ligand used and KD is the 2 equilibrium dissociation constant for the ligand.

Molecules are shown by their SMILES.

T2 sequence (P61169 whole entry): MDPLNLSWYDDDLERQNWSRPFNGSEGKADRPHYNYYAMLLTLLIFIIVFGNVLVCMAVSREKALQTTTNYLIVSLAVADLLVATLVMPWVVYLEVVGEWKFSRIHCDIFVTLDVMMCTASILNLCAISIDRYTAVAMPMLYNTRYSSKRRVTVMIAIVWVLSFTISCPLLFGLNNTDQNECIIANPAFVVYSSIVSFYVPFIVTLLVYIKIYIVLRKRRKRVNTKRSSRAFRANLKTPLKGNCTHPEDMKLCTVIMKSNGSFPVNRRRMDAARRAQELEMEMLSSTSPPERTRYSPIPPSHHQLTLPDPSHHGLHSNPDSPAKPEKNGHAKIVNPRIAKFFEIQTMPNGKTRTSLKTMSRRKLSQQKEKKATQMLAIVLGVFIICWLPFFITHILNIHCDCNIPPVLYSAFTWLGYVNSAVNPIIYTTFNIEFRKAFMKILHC

Turning to `Nc1ncccc1C(=O)NCC1CCN(C[C@H]2COc3ccc(F)c(F)c3O2)CC1` [Example 27, (S)-2-amino-N-{[1-(7,8-difluoro-1,4-benzodioxan-2-ylmethyl)4-piperidyl]methyl}pyridine-3-carboxamide], the figures for the inhibition at 1 µM at 5-HT1A receptors and on D2 dopamine receptors were 90% and 99.9%, respectively. Further, the “% displacement of radio ligand, α1” value in the assay with α1-adrenoceptors worked out at 68%.

As to `O=C(NCC1CCN(C[C@H]2COc3ccc(F)cc3O2)CC1)c1cccnc1` [Example 43, (S)-N-{[1-(7-fluoro-1,4-benzodioxan-2-ylmethyl)-4-piperidyl]methyl}pyridine-3-carboxamide], the figures for the inhibition at 1 µM on 5-HT1A receptors and at D2 dopamine receptors were 76% and 68%, respectively. In addition, in the assay on α1-adrenoceptors, the “% displacement of radio ligand, α1” value was found to be 59%.

`Cc1ccc2c(c1)O[C@@H](CN1CCC(CNC(=O)c3ccc(-n4cccc4)nc3)CC1)CO2` [Example 32, (S)-N-{[1-(7-methyl-1,4-benzodioxan-2-ylmethyl)-4-piperidyl]methyl}-6-(1-pyrrolyl)pyridine-3-carboxamide]: the inhibition at 1 µM on 5-HT1A receptors came to 92%; at D2 dopamine receptors, 80%. The “% displacement of radio ligand, α1” value with α1-adrenoceptors is reported as 71%.

As for `O=C(NCC1CCN(C[C@H]2COc3ccc(Br)cc3O2)CC1)c1ccc(-n2cccc2)nc1` [Example 37, (S)-N-{[1-(7-bromo-1,4-benzodioxan-2-ylmethyl)-4-piperidyl]methyl}-6-(1-pyrrolyl)pyridine-3-carboxamide], the inhibition at 1 µM was found to be 85% on 5-HT1A receptors and 97% at D2 dopamine receptors. Further, the “% displacement of radio ligand, α1” value in the assay on α1-adrenoceptors came to 66%.

For `O=C(NCC1CCN(C[C@H]2COc3ccc(Br)cc3O2)CC1)c1cncc(Br)c1` [Example 39, (S)-5-bromo-N-{[1-(7-bromo-1,4-benzodioxan-2-ylmethyl)-4-piperidyl]methyl}pyridine-3-carboxamide], the inhibition at 1 µM on 5-HT1A receptors came to 85%; at D2 dopamine receptors, 87%. In addition, the “% displacement of radio ligand, α1” value in the assay on α1-adrenoceptors turned out to be 43%.

`CSc1ncccc1C(=O)NCC1CCN(C[C@H]2COc3ccc(C)cc3O2)CC1` [Example 33, (S)-N-{[1-(7-methyl-1,4-benzodioxan-2-ylmethyl)-4-piperidyl]methyl}-2-(methylthio)pyridine-3-carboxamide]: the inhibition at 1 µM at 5-HT1A receptors and at D2 dopamine receptors was 81% in each case. Moreover, in the assay with α1-adrenoceptors, the “% displacement of radio ligand, α1” value was found to be 41%.

Turning to `Cc1ncccc1C(=O)NCC1CCN(C[C@H]2COc3cccc(C(F)(F)F)c3O2)CC1` [Example 46, (S)-2-methyl-N-{[1-(8-trifluoromethyl-1,4-benzodioxan-2-ylmethyl)-4-piperidyl]methyl}pyridine-3-carboxamide], the inhibition at 1 µM at 5-HT1A receptors was determined as 86%; on D2 dopamine receptors, 104%. For the same compound, in the assay on α1-adrenoceptors, the “% displacement of radio ligand, α1” value amounted to 98%.

As to `Cc1ccc2c(c1)O[C@@H](CN1CCC(CNC(=O)c3cccnc3)CC1)CO2` [Example 30, (S)-N-{[1-(7-methyl-1,4-benzodioxan-2-ylmethyl)-4-piperidyl]methyl}pyridine-3-carboxamide], the inhibition at 1 µM on 5-HT1A receptors came out at 78%; on D2 dopamine receptors, 85%. The “% displacement of radio ligand, α1” value in the assay on α1-adrenoceptors is recorded as 61%.

As to `O=C(NCC1CCN(C[C@H]2COc3cccc(C(F)(F)F)c3O2)CC1)c1cccnc1` [Example 45, (S)-N-{[1-(8-trifluoromethyl-1,4-benzodioxan-2-ylmethyl)-4-piperidyl]methyl}pyridine-3-carboxamide], the inhibition at 1 µM on 5-HT1A receptors came out at 80%; at D2 dopamine receptors, 97%. The “% displacement of radio ligand, α1” value in the assay with α1-adrenoceptors worked out at 94%.

On to `Nc1ncccc1C(=O)NCC1CCN(C[C@H]2COc3ccc(Br)cc3O2)CC1` [Example 21, (S)-2-amino-N-{[1-(7-bromo-1,4-benzodioxan-2-ylmethyl)-4-piperidyl]methyl}pyridine-3-carboxamide], for which the Ki at 5-HT1A receptors ([3H]8-OH-DPAT 2 nM, 25° C., 30 min) came out at 0.035 µM; on α1-adrenoceptors ([7-methoxy-3H]prazosin 0.1 nM, 30° C.) it was 0.099 µM; on D2 dopamine receptors (tritiated (S)-sulpiride 1 nM, 4° C., 40 min), 0.018 µM.

In the case of `O=C(NCC1CCN(C[C@H]2COc3cccc(C(F)(F)F)c3O2)CC1)c1cncc(Br)c1` [Example 49, (S)-5-bromo-N-{[1-(8-trifluoromethyl-1,4-benzodioxan-2-ylmethyl)-4-piperidyl]methyl}pyridine-3-carboxamide], the inhibition at 1 µM is 88% on 5-HT1A receptors and 99% on D2 dopamine receptors. For the same compound, the “% displacement of radio ligand, α1” value with α1-adrenoceptors came to 93%.

As for `CSc1ncccc1C(=O)NCC1CCN(C[C@H]2COc3ccc(F)cc3O2)CC1` [Example 44, (S)-N-{[1-(7-fluoro-1,4-benzodioxan-2-ylmethyl)-4-piperidyl]methyl}-2-(methylthio)pyridine-3-carboxamide], the inhibition at 1 µM is 64% on 5-HT1A receptors and 57% on D2 dopamine receptors. For the same compound, in the assay on α1-adrenoceptors, the “% displacement of radio ligand, α1” value is 38%.

In the case of `O=C(NCC1CCN(C[C@H]2COc3cccc(C(F)(F)F)c3O2)CC1)c1ccc(-n2cccc2)nc1` [Example 47, (S)-6-(1-pyrrolyl)-N-{[1-(8-trifluoromethyl-1,4-benzodioxan-2-ylmethyl)-4-piperidyl]methyl}pyridine-3-carboxamide], the inhibition at 1 µM is 75% on 5-HT1A receptors and 100% on D2 dopamine receptors. In the assay with α1-adrenoceptors, the “% displacement of radio ligand, α1” value turned out to be 94%.

Regarding `O=C(c1ccccn1)N1CCC(CNC[C@H]2COc3ccc(Cl)cc3O2)CC1` [Example 29, 4-[N-(7-chloro-1,4-benzodioxan-2-ylmethyl)aminomethyl]-1-(2-pyridylcarbonyl)piperidine], at 5-HT1A receptors, the inhibition at 1 µM is 95%. The “% displacement of radio ligand, α1” value with α1-adrenoceptors came to 85%.

These data come from patent US5935973A, “Heterocyclcarboxamide derivatives and their use as therapeutic agents” (Knoll Aktiengesellschaft, priority 1995, dated 1999).
